One data set has as its target B*3909 (Homo sapiens, UniProt P01889, A182T/A93T/A95T/C349S/D138N/D201E/E176V/E187T/E204Q/K202T/Q94N/R155S/R180L/S121R/Y123S/Y140F/Y91C). Description: cell-based.
A further data set deals with aminopeptidase M. The settings on record: pig, 37°C, up to 10 min.
A further data set relates to 20S proteasome. Nature of the data set: purified 20S proteasome. The note with it: human, 37°C, up to 24 h.
Data set [1] has as its target T1, aminopeptidase M from pig kidney (Sus scrofa, UniProt P15145).
T1 sequence (P15145 whole entry, looked up): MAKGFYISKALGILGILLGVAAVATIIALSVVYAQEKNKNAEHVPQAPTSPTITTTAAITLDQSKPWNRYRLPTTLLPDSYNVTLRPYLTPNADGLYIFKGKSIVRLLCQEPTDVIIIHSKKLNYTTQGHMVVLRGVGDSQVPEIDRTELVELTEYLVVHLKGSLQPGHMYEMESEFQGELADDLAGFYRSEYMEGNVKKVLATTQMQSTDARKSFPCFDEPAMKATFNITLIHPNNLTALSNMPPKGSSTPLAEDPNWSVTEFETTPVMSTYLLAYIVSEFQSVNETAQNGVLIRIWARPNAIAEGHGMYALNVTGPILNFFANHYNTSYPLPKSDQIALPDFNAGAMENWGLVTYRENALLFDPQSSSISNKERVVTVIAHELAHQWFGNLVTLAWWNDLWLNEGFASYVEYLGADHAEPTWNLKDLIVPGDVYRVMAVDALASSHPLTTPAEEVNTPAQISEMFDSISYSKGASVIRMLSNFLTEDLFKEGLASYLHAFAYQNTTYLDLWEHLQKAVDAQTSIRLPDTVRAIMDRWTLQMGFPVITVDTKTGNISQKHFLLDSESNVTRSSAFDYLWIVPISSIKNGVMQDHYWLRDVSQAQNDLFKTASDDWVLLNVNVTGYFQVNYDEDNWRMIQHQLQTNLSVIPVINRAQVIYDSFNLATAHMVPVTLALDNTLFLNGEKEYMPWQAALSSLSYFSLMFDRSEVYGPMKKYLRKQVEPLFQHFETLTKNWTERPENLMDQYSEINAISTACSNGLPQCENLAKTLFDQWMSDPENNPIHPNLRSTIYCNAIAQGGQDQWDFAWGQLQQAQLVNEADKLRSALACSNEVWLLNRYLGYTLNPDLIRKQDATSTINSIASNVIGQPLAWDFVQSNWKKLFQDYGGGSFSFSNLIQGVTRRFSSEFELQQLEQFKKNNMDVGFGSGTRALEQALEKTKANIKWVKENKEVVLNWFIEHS

The results in this text go back to publication PMC2193201 (The Journal of Experimental Medicine, 2000).

What is called EC50 is the midpoint of the concentration-response curve. Read a low EC50 as higher potency in that assay.

Where a SMILES comes first, the peptide text is derived from it.

`CC(C)C[C@H](NC(=O)[C@H](Cc1ccc(O)cc1)NC(=O)[C@H](Cc1ccccc1)NC(=O)[C@H](CCC(=O)O)NC(=O)[C@@H](NC(=O)[C@H](CCC(=O)O)NC(=O)[C@H](CC(=O)O)NC(=O)[C@H](CCCNC(=N)N)NC(=O)[C@H](C)N)[C@@H](C)O)C(=O)O` (H-ARDETEFYL-OH): the EC50 on B*3909 stood at 5 µM.
Still for that read-out and setting: as for `CC(C)C[C@H](NC(=O)[C@H](C)NC(=O)[C@@H](NC(=O)[C@@H](NC(=O)CNC(=O)[C@@H]1CCCN1C(=O)[C@H](CCCNC(=N)N)NC(=O)[C@@H](N)Cc1ccc(O)cc1)[C@@H](C)O)C(C)C)C(=O)O` [YRPGTVAL] (H-YRPGTVAL-OH), the figure is 12 µM.
In the case of NAc-SHVAVENAL, in the data set on aminopeptidase M, the not cleaved result is listed as “signals remained strongly significant”.
With NAc-SHVAVENALGLDQQFAGLDLNSSDNQSGGS, the cleaved bond entry in the data set with 20S proteasome is recorded as “L9-G10, major”.
With THGPPVQL, the “MALDI-TOF MS peak signal after digestion with aminopeptidase M” value in data set [1] is given as “reduced almost to background levels”.
